This is an account of results in BindingDB's records for patent US20250115591 (Inflazome, 2025).

NACHT, LRR and PYD domains-containing protein 3, sequence (Q96P20 whole entry, the tested form may be a part): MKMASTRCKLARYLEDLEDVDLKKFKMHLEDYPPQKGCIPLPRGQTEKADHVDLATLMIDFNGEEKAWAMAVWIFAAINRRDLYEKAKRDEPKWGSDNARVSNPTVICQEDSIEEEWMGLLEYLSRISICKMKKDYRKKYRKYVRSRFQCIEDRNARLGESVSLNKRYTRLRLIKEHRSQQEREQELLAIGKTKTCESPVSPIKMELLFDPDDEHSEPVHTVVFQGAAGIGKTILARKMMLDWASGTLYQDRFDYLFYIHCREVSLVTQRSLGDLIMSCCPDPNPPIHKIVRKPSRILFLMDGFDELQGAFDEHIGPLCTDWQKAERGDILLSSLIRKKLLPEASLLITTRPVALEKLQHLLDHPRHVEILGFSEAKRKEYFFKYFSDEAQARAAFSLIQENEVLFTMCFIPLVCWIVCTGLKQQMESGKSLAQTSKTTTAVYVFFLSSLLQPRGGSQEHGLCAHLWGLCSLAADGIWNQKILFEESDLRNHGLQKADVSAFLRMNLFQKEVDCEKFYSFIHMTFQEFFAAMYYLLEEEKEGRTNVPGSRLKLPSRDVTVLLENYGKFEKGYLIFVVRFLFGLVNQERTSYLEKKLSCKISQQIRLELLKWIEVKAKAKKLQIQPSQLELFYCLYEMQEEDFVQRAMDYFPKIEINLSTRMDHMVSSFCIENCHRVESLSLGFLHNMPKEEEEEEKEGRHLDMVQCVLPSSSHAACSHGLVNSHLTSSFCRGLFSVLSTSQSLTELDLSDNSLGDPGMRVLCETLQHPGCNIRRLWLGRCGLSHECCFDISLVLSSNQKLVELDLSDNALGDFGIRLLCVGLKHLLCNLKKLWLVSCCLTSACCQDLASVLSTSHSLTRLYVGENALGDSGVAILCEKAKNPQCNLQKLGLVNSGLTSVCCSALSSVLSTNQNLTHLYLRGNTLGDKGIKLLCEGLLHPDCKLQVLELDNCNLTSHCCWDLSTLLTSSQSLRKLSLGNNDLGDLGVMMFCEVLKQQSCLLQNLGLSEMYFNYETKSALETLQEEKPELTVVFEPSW

This assay addresses NACHT, LRR and PYD domains-containing protein 3 (Homo sapiens, UniProt Q96P20). Description: THP-1 Cells Pyroptosis Assay. The protocol:
1. Seed THP-1 cells (25,000 cells/well) containing 1.0 μg/ml LPS in 40μ of RPMI medium (without FBS) in 96-well, black walled, clear bottom cell culture plates coated with poly-D-lysine (VWR #734-0317)2. Add 5 μl compound (8 points half-log dilution, with […]) or vehicle (DMSO 0.1% FAC) to the appropriate wells3. Incubate for 3 hrs at 37° C. and 5% CO24. Add 5 μl nigericin (Sigma #N7143) (FAC 5 μM) to all wells5. Incubate for 1 hr at 37° C. and 5% CO26. At the end of the incubation period, spin plates at 300×g for 3 mins and remove supernatant7. Then add 50 μl of resazurin (Sigma #R7017) (FAC 100 μM resazurin in RPMI medium without FBS) and incubate plates for a further 1-2 hrs at 37° C. and 5% CO28. Plates were read in an Envision reader at Ex 560 nm and Em 590 nm9. IC50 data is fitted to a non-linear regression equation (log inhibitor vs response-variable slope 4-parameters)
For orientation: IC50 means the concentration that inhibits the measured activity by half. Lower therefore signals inhibition by little substance. With `CC(=O)N1CCC(S(=O)(=O)NC(=O)Nc2c3c(cc4c2CCC4)CCC3)CC1` [US20250115591, Example 3], the IC50 was under 10 µM.

On to `Cn1cc(S(=O)(=O)NC(=O)Nc2c3c(cc4c2CCC4)CCC3)c(=O)n(C)c1=O` [US20250115591, Example 16], for which the IC50 was under 10 µM.

On to `CCCCCCn1cc(S(=O)(=O)NC(=O)Nc2c3c(cc4c2CCC4)CCC3)c(=O)[nH]c1=O` [US20250115591, Example 17], for which the IC50 was under 10 µM.

In turn, `O=C(Nc1c2c(cc3c1CCC3)CCC2)NS(=O)(=O)C1CN(C2CCC2)C1` [US20250115591, Example 18] yielded an IC50 of under 1 µM.

In turn, `CN(C)C(=O)CN1CC(S(=O)(=O)NC(=O)Nc2c3c(cc4c2CCC4)CCC3)C1` [US20250115591, Example 21] showed an IC50 of under 10 µM.

`CCNC(=O)N1CCC(S(=O)(=O)NC(=O)Nc2c3c(cc4c2CCC4)CCC3)CC1` [US20250115591, Example 26] yielded an IC50 of under 10 µM.

`CNC(=O)N1CCC(S(=O)(=O)NC(=O)Nc2c3c(cc4c2CCC4)CCC3)CC1` [US20250115591, Example 28] had an IC50 of under 10 µM.

Molecule `CCNC(=O)N1CCC(S(=O)(=O)NC(=O)Nc2c3c(cc4c2CCC4)CCC3)C1` (stereo unspecified) [US20250115591, Example 30] gave an IC50 of under 10 µM.

`CC(C)NC(=O)N1CCCC(S(=O)(=O)NC(=O)Nc2c3c(cc4c2CCC4)CCC3)C1` (stereo unspecified) [US20250115591, Example 33] yielded an IC50 of under 10 µM.

Take `CCN1CCC(S(=O)(=O)NC(=O)Nc2c3c(cc4c2CCC4)CCC3)C1` (stereo unspecified) [US20250115591, Example 37]: the IC50 is under 1 µM.

`CC(=O)N1CCC(S(=O)(=O)NC(=O)Nc2c3c(cc4c2CCC4)CCC3)C1` (stereo unspecified) [US20250115591, Example 38]: the IC50 was under 10 µM.

Molecule `O=C(Nc1c2c(cc3c1CCC3)CCC2)NS(=O)(=O)C1CNC1` [US20250115591, Example 42] showed an IC50 of under 10 µM.

In the case of `CC(C)N1[C@@H]2CC[C@H]1C[C@@H](S(=O)(=O)NC(=O)Nc1c3c(cc4c1CCC4)CCC3)C2` [US20250115591, Example 45], the IC50 is under 1 µM.

Molecule `CCN1[C@@H]2CC[C@H]1C[C@@H](S(=O)(=O)NC(=O)Nc1c3c(cc4c1CCC4)CCC3)C2` [US20250115591, Example 52] showed an IC50 of under 10 µM.

As for `O=C(Nc1c2c(cc3c1CCC3)CCC2)NS(=O)(=O)C1CCNC1` (stereo unspecified) [US20250115591, Example 55], the IC50 is under 10 µM.

Molecule `CC(=O)N1CCCC(S(=O)(=O)NC(=O)Nc2c3c(cc4c2CCC4)CCC3)C1` (stereo unspecified) [US20250115591, Example 56] showed an IC50 of under 10 µM.

The molecule `CC(C)N1[C@@H]2CC[C@H]1C[C@H](S(=O)(=O)NC(=O)Nc1c3c(cc4c1CCC4)CCC3)C2` [US20250115591, Example 69] came in with an IC50 of under 1 µM.

Take `CCN1[C@@H]2CC[C@H]1C[C@H](S(=O)(=O)NC(=O)Nc1c3c(cc4c1CCC4)CCC3)C2` [US20250115591, Example 70]: the IC50 was under 1 µM.

`CC(=O)N1CC(S(=O)(=O)NC(=O)Nc2c3c(cc4c2CCC4)CCC3)C1` [US20250115591, Example 74] displayed an IC50 of under 10 µM.

`COC(=O)CN1CC(S(=O)(=O)NC(=O)Nc2c3c(cc4c2CCC4)CCC3)C1` [US20250115591, Example 78] yielded an IC50 of under 10 µM.

On to `CCC(C)N1CCC(S(=O)(=O)NC(=O)Nc2c3c(cc4c2CCC4)CCC3)C1` (stereo unspecified) [US20250115591, Example 82], for which the half-inhibitory concentration (IC50) is under 10 µM.

`CCCCN1CC(S(=O)(=O)NC(=O)Nc2c3c(cc4c2CCC4)CCC3)C1` [US20250115591, Example 83] showed an IC50 of under 10 µM.

`O=C(Nc1c2c(cc3c1CCC3)CCC2)NS(=O)(=O)C1CN(C2CC2)C1` [US20250115591, Example 85] returned an IC50 of under 1 µM.

Consider `N#CCN1CC(S(=O)(=O)NC(=O)Nc2c3c(cc4c2CCC4)CCC3)C1` [US20250115591, Example 87], for which the half-maximal inhibitory concentration (IC50) was under 10 µM.

The molecule `CC(C)(C)N1CC(S(=O)(=O)NC(=O)Nc2c3c(cc4c2CCC4)CCC3)C1` [US20250115591, Example 93] returned an IC50 of under 1 µM.

`O=C(Nc1c2c(cc3c1CCC3)CCC2)NS(=O)(=O)C1CN(C2CCCCC2)C1` [US20250115591, Example 98] gave an IC50 of under 1 µM.

For `O=C(Nc1c2c(cc3c1CCC3)CCC2)NS(=O)(=O)C1CN(C2CCCC2)C1` [US20250115591, Example 99], the IC50 is under 1 µM.

For the molecule `CC(C)(C)OC(=O)N1CC(N2CC(S(=O)(=O)NC(=O)Nc3c4c(cc5c3CCC5)CCC4)C2)C1` [US20250115591, Example 106], the IC50 is under 10 µM.

Turning to `CC(C)(C)OC(=O)/N=C(/NC(=O)OC(C)(C)C)N1CC(S(=O)(=O)NC(=O)Nc2c3c(cc4c2CCC4)CCC3)C1` [US20250115591, Example 112], the IC50 was under 10 µM.

Molecule `N=C(N)N1CC(S(=O)(=O)NC(=O)Nc2c3c(cc4c2CCC4)CCC3)C1` [US20250115591, Example 113] showed an IC50 of under 1 µM.

Molecule `O=C(Nc1c2c(cc3c1CCC3)CCC2)NS(=O)(=O)C1CN(C2CNC2)C1` [US20250115591, Example 114] showed an IC50 of under 10 µM.

For the molecule `CN(C(=O)OC(C)(C)C)/C(=N\C(=O)OC(C)(C)C)N1CC(S(=O)(=O)NC(=O)Nc2c3c(cc4c2CCC4)CCC3)C1` [US20250115591, Example 127], the IC50 was under 10 µM.

Turning to `CNC(=N)N1CC(S(=O)(=O)NC(=O)Nc2c3c(cc4c2CCC4)CCC3)C1` [US20250115591, Example 129], the IC50 was under 10 µM.

In turn, `C=CCN1CC(S(=O)(=O)NC(=O)Nc2c3c(cc4c2CCC4)CCC3)C1` [US20250115591, Example 132] gave a concentration for half-maximal inhibition (IC50) of under 1 µM.

In the case of `CCC(C)N1CC(S(=O)(=O)NC(=O)Nc2c(C(C)C)cc(F)cc2C(C)C)C1` (stereo unspecified) [US20250115591, Example 143], the IC50 is under 10 µM.

For the molecule `CN1CC(N2[C@@H]3CC[C@H]2C[C@@H](S(=O)(=O)NC(=O)Nc2c4c(cc5c2CCC5)CCC4)C3)C1` [US20250115591, Example 146], the IC50 is under 10 µM.

Regarding `CC(C)N1CC(S(=O)(=O)NC(=O)Nc2c3c(cc4c2CCC4)CCC3)CC1C(=O)N(C)C` (stereo unspecified) [US20250115591, Example 148], the IC50 was under 10 µM.

Molecule `COc1cc(-c2ccc3c(c2NC(=O)NS(=O)(=O)c2cn(C(C)C)c(=O)cn2)CCC3)ccn1` [US20250115591, Example 156] gave a 50% inhibitory concentration (IC50) of under 1 µM.

`C[C@@H](O)Cn1cc(S(=O)(=O)NC(=O)Nc2c3c(cc4c2CCC4)CCC3)ccc1=O` [US20250115591, Example 183]: the IC50 was under 1 µM.

In turn, `CCC(C)N1CC(S(=O)(=O)NC(=O)Nc2c(C(C)C)cc(Cl)cc2C(C)C)C1` (stereo unspecified) [US20250115591, Example 187] came in with an IC50 of under 10 µM.

For the molecule `CCN1CCCC(S(=O)(=O)NC(=O)Nc2c3c(cc4c2CCC4)CCC3)CC1` (stereo unspecified) [US20250115591, Example 194], the IC50 is under 1 µM.
